Measured values taken from patent publication US20250304700A1, “ANTI-BLOOD DENDRITIC CELL ANTIGEN 2 ANTIBODIES AND USES THEREOF” (Biogen MA Inc., priority 2012, published 2025).
“Also recorded” adds a separate entry of the source.

Experiments:
[1] = tested on: TLR9-induced IFNα production; test: Ex vivo whole blood assay (MxA bioassay) after in vivo dosing; set-up: species or system cynomolgus monkey
Method: FIG. 58 is a schematic representation of the Cynomolgus Monkey PK/PD Experimental Design. Nine Cynomolgus monkeys completed the intravenous (IV) dose study. […] At each bleeding time point, a whole blood assay was performed where whole blood from the cynomolgus monkeys was diluted 1:4 with complete RPMI 1640 and stimulated with CPG-A to a final concentration of 200 μg/ml in a 96 well round bottom tissue culture plate and incubated at 37° C. 5% CO2 for 18-20 hours. At the end of the culture, the stimulated whole blood was centrifuged to harvest serum. In the MxA bioassay, A549 cells were stimulated with the harvested serum for 19-20 hours at 37° C. 5% CO2 to induce MxA protein. After 20 hours, A549 cells were lysed and a sandwich ELISA was performed to detect concentrations of MxA protein. IFNα levels (units/mL) were back calculated from a standard curve generated by treating A549 cells with increasing doses of rIFNa.
Intravenous and subcutaneous dosing routes were evaluated for their ability to impact IFNα induction, which was measured using the MxA bioassay according to the experimental plan outlined in FIG. 58. TLR9 ligand (CpG-A) induced measurable quantities of IFNα in whole blood cultures across all time points and in all cynomolgus monkeys, while no IFNα was detected in the control PBS-treated cultures (data not shown).
A more comprehensive analysis of the data was performed using two-way mixed effects analysis of variance (ANOVA) to estimate the mean IFNα and the post versus pre differences for each dose group in the IV-study. Data during the first 24 hours following dosing were excluded due to an observed decrease in peripheral blood plasmacytoid dendritic cell percentages. Data for bleeds after day 31 post-dose were excluded from the analysis due to the return of BDCA2 expression observed at this time. For the vehicle dosed group, the geometric mean IFNα was 362 Units/mL (U/mL) pre-dose, and 314 U/mL post-dose; for the 1 mg/kg dosed group, the geometric mean was 399 U/mL pre-dose, and 237 U/mL post-dose; for the 10 mg/kg group, the geometric mean IFNα was 211 U/mL pre-dose, and 102 U/mL post-dose (FIG. 4). The post-pre differences in mean log 10 IFNα were-0.061 (p=0.511) for the Vehicle group, −0.226 (p=0.016) for the 1 mg/kg group, and −0.317 (p=0.004) for the 10 mg/kg group.
For the subcutaneously-dosed cynomolgus monkey cohort, a one-way analysis of variance (ANOVA) with random effects was used to estimate the mean IFNα and the post versus pre differences for the entire group. Data during the first 24 hours following dosing were excluded due to an observed decrease in peripheral blood plasmacytoid dendritic cell percentages. Data for bleeds after day 33 post-dose were excluded from the analysis due to the recovery of BDCA2 expression observed at this time. For the subcutaneously dosed group, the geometric mean IFNα was 1243 U/mL pre-dose and 812 U/mL post-dose, yielding a post/pre ratio of 65%. The post-pre difference in mean log 10 was estimated to be −0.185 (p=0.059) which, after anti-log 10 transformation, corresponds to 10^(−0.185)=65% of the pre-dose geometric mean; the 95% CI of this effect is 41%-102% (FIG. 61).

circulating pDCs = test: Circulating pDC frequency after dosing cynomolgus monkeys; type: in vivo, cynomolgus monkey
Text: Nine of these twelve cynomolgus monkeys were divided into 3 groups (3/group), and randomized to include equal representation of BDCA2 density and percent pDC in each group. […] Flow cytometry was used to identify circulating pDCs in the whole blood as CD20-CD14-CD123+HLA-DR+, and the pDC frequency (on log-scale) at each time point was graphed in R software (FIG. 54). A linear mixed effects model was fitted to log (pDC) frequencies using random intercepts for cynomolgus monkeys and fixed effects for dose group and time period: 1 hour, 6 hours, 1-27 days, and greater than 28 days. To assess whether pDC changed among different dose groups at different time periods, a preliminary model also included the interaction terms for dose group and different time periods.
The pDC frequency (on log-scale) at each time point was graphed in R software (FIG. 56). A linear mixed effects model was fitted, using continuous time and time at 1 hour as fixed factors, and cynomolgus monkeys as random intercepts.

[2] = tested on: CD62L on the surface of human pDCs; test: CD62L surface expression on pDCs by flow cytometry; type: cell-based; details: whole blood, 1 hour at 37° C., no stimulation
Method: The MFI of CD62L was determined by gating on pDCs as defined by CD14−, CD20−, HLA-DR+ and CD123+.
Metalloproteinase are known to induce CD62L shedding from the surface of immune cells. […] The surface expression of CD62L was assayed by flow cytometry. GM6001 inhibited the BIIB059-mediated down-modulation CD62L in a dose dependent manner (FIG. 45).

[3] = tested on: TLR9-induced IFNα production in whole blood; test: Pre-incubation (internalization) before TLR9 stimulation, IFNα in whole blood; type: cell-based, human; details: up to 9 hours pre-incubation, then 200 μg/mL CpG-A for 18 hours
Method: The following experiment was conducted to ascertain whether BIIB059-mediated receptor internalization affected IFN inhibition. […] At each time point after pre-incubation, cells were challenged with 200 μg/mL CpGA and incubated for an additional 18 hours at 37° C. Supernatants were collected for use in IFNα ELISA assays (PBL InterferonSource). The assays were performed according to the manufacturer's protocol. FIG. 19B is a representative experiment of 3 independent experiments performed. […] In addition, we have previously shown that bivalent binding was necessary for anti-BDCA2 mediated IFN inhibition.
At each time point after pre-incubation, cells were stimulated with 200 μg/mL TLR9 ligand (CpG-A) and incubated for an additional 18 hours at 37° C. Supernatants were collected for use in IFNα ELISA assays (PBL InterferonSource).

**Q.** Which results are given for “BIIB059: humanized IgG1 anti-BDCA2 antibody, mature heavy chain SEQ ID NO: 4 and mature light chain SEQ ID NO: 3”?
**A.** IFNα post-dose, of the pre-dose geometric mean ([1]; 0.2 mg/kg SC): 65%; post-pre difference in mean log 10 IFNα ([1]; 0.2 mg/kg SC): −0.185; geometric mean IFNα post-dose ([1]; 0.2 mg/kg SC, up to day 33): 812 U/mL; IFN concentration post-dose compared to pre-dose ([1]; 1 mg/kg IV): 59%; post-pre difference in mean log 10 IFNα ([1]; 1 mg/kg IV): −0.226; geometric mean IFNα post-dose ([1]; 1 mg/kg IV, up to day 31): 237 U/mL; IFN concentration post-dose compared to pre-dose ([1]; 10 mg/kg IV): 48%; geometric mean IFNα post-dose ([1]; 10 mg/kg IV): 102 U/mL; post-pre difference in mean log 10 IFNα ([1]; 10 mg/kg IV): −0.317; TLR9-induced IFN production ex vivo, in words ([1]; dosed in vivo, IV and SC): trend towards inhibited TLR9-induced IFN production; effect est., log % circulating pDC (circulating pDCs; Group: BIIB059 1 mg/kg IV v. vehicle): 0.49; effect est., log % circulating pDC (circulating pDCs; SC 0.2 mg/kg, time (continuous)): 0.01; effect est., log % circulating pDC (circulating pDCs; SC 0.2 mg/kg, time: 1 hr v. others): −0.78; depletion of pDCs in the blood, in words (circulating pDCs; tested doses): does not mediate a sustained depletion of pDCs; CD62L expression on the surface of pDCs [2]: dose-dependent decrease; effect of pre-incubation on IFNα inhibition [3]: did not affect IFN inhibition; also recorded: did not alter the ability of BIIB059 to inhibit
